Source: PubChem BioAssay (NCI)
“And” between values parts separate entries of the source, which are not always exact repeats. Identical values can stand only once.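 Grown in 96-well plates, cells were treated for 48 hours with each compound at five concentrations. Insufficient inhibition: endpoint recorded as highest concentration tested. GI50 marks 50% less growth. TGI denotes the concentration required for complete inhibition of growth.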

What was measured:
Test in all cases: growth of human tumour cells (NCI), 48 h
NCI-H23 lung = tested on: NCI-H23 lung
OVCAR-8 ovarian = tested on: OVCAR-8 ovarian
UACC-257 melanoma = tested on: UACC-257 melanoma
MCF7 breast = tested on: MCF7 breast
COLO 205 colon = tested on: COLO 205 colon
HCC-2998 colon = tested on: HCC-2998 colon
KM12 colon = tested on: KM12 colon
NCI-H226 lung = tested on: NCI-H226 lung
SF-539 CNS = tested on: SF-539 CNS
MOLT-4 leukemia = tested on: MOLT-4 leukemia

SMILES | TGI (NCI-H23 lung) [µM] | TGI (OVCAR-8 ovarian) [µM] | TGI (UACC-257 melanoma) [µM] | TGI (MCF7 breast) [µM] | TGI (COLO 205 colon) [µM] | TGI (HCC-2998 colon) [µM] | TGI (KM12 colon) [µM] | TGI (NCI-H226 lung) | TGI (SF-539 CNS) | GI50 (NCI-H23 lung) [µM] | GI50 (OVCAR-8 ovarian) [µM] | GI50 (UACC-257 melanoma) | GI50 (MCF7 breast) [µM] | GI50 (COLO 205 colon) [µM] | GI50 (MOLT-4 leukemia) [µM] | TGI (MOLT-4 leukemia) [µM] | GI50 (HCC-2998 colon) [µM] | GI50 (KM12 colon) [µM] | GI50 (NCI-H226 lung) | GI50 (SF-539 CNS)
CNCCCNc1c2ccccc2nc2cccc([N+](=O)[O-])c12 | 0.00564 | 0.0205 | 0.0495 | 0.089 | 0.00586 | 0.0173 | 0.0677 | 0.0521 µM | 0.0163 µM and 0.0172 µM | – | – | – | – | – | – | – | – | – | – | –
O=C(Nc1ccc2c(c1)OCCO2)C(=O)c1c[nH]c2ccccc12 | 26.7 | 35.7 | > 100 | > 100 | > 100 | > 100 | > 100 | 61.3 µM | 5.32 µM | 1.44 | 2.37 | > 23.5 µM | 1.31 | 2.72 | 0.618 | > 100 | 1.37 | 0.469 | 5.03 µM | 1.5 µM
O=C(/C=C\n1cnc(-c2cc(C(F)(F)F)cc(C(F)(F)F)c2)n1)N1CC(F)(F)C1 | 5.61 | > 11.8 | > 13.1 | 1.64 | 4.14 | 4.42 | > 25 | – | 1.58 µM | 0.391 | 0.442 | 1.17 µM | 0.212 | 0.351 | 0.197 | 0.944 | 0.729 | 2.41 | – | 0.161 µM
O=C(NCc1ccc2ccc3cccnc3c2n1)c1ccc[n+](Cc2ccccc2)c1 | > 100 | > 100 | > 100 | – | > 100 | > 100 | > 100 | > 100 µM | > 100 µM | – | – | – | – | – | – | > 100 | – | – | – | –
CCn1c(=N)sc2nc3ccccc3n2c1=O | > 100 | > 100 | > 100 | > 100 | > 100 | > 100 | > 100 | > 100 µM | > 100 µM | – | – | – | – | – | – | > 100 | – | – | – | –
CC12OC(C(=O)C13CCC3)C1C(=O)c3ccc4c(ccc5ccccc54)c3C(=O)C12 (configuration not stated) | 23.6 | > 100 | 39.3 | 30.7 | 33.1 | – | – | – | 66.8 µM | 10.5 | 6.49 | 10.7 µM | 5.1 | 11.2 | 3.67 | 53.6 | – | – | – | 11.1 µM
S=C(CSc1ccccc1)Nc1cccc2ccccc12 | > 100 | > 100 | 68.3 | > 100 | 32 | – | > 100 | > 100 µM | 76.4 µM | – | – | – | – | – | – | 63.2 | – | – | – | –
CC1(C)C(=O)C(=Cc2ccco2)C1=O | > 100 | > 100 | > 100 | – | > 100 | > 100 | > 100 | > 100 µM | > 100 µM | – | – | – | – | – | – | > 100 | – | – | – | –
COc1cc(-c2cc3ncccc3c3[nH]c(=O)c4cccnc4c23)cc(OC)c1OC | > 100 | > 100 | – | > 100 | > 100 | > 100 | > 100 | > 100 µM | 5.84 µM | 2.3 | 2.51 | – | 0.394 | 0.538 | 0.782 | 28.8 | 2.08 | 0.651 | 23.6 µM | 0.488 µM
COc1cc2c3c(c1OC)C(=O)C=C3N(S(=O)(=O)c1ccc(C)cc1)CC2 | > 100 | > 100 | > 100 | – | > 100 | > 100 | > 100 | > 100 µM | > 100 µM | – | – | – | – | – | – | > 100 | – | – | – | –
CC(=O)O[C@H](C[C@H](C(C)C)N(C)C(=O)[C@@H](NC(=O)[C@H]1CCCCN1C)C(C)C)c1cccc(C(=O)N[C@@H](Cc2ccccc2)C[C@H](C)C(=O)O)n1 | > 25 | > 25 | – | > 25 | 0.329 | > 25 | > 25 | 5.36 µM | 0.0626 µM | 0.051 | 0.0475 | – | 0.00992 | 0.0279 | 0.0219 | > 25 | 0.0544 | 0.0262 | 0.067 µM | 0.0193 µM
O=C(N/C(=C/c1cccc([N+](=O)[O-])c1)c1nc2ccc(Cl)cc2[nH]1)c1ccccc1 | 99.5 | 30.6 | > 100 | – | > 100 | 70.4 | 31.1 | > 100 µM | 12.5 µM | – | – | – | – | – | – | 49 | – | – | – | –
C/C(O)=C(\N=O)C(=O)NCc1ccccc1 | > 100 | > 100 | > 100 | – | > 100 | > 100 | > 100 | > 100 µM | > 100 µM | – | – | – | – | – | – | > 100 | – | – | – | –
N#C/C(=C\c1ccccc1)C(NO)Nc1ccccc1 (configuration not stated) | > 100 | > 100 | > 100 | – | > 100 | > 100 | > 100 | > 100 µM | > 100 µM | – | – | – | – | – | – | > 100 | – | – | – | –
CC1=C(C(=O)Nc2ccccc2)C(c2cc(Cl)cc(Cl)c2)C(C(=O)Nc2ccccc2)=C(C)N1 | 19.1 | 43.5 | 27.2 | – | 31 | 25.7 | 16.8 | 31.6 µM | 32.8 µM | – | – | – | – | – | – | 18.1 | – | – | – | –
CCC[CH2][Sn]([CH2]CCC)([O]C(=O)c1cccc(F)c1F)[O]C(=O)c1cccc(F)c1F | 1.89 | 2.57 | 2.28 | – | 2.13 | 2.98 | 2.85 | 2.52 µM | 2.56 µM | 0.614 | 1.3 | 1.09 µM | – | 0.962 | 0.336 | 2.04 | 1.63 | 1.52 | 1.25 µM | 1.27 µM
COC(=O)CC(C(C(C)=O)C(=O)OCc1ccccc1)N1C(=O)OC(c2ccccc2)C1c1ccccc1 (configuration not stated) | > 100 | > 100 | > 100 | – | > 100 | > 100 | > 100 | 80.7 µM and > 100 µM | > 100 µM | – | – | 23.6 µM and 55.3 µM | – | – | – | > 100 | – | – | 12.2 µM and 77.5 µM | 24.1 µM and > 100 µM
COc1cc(-c2nccc3cc4c(cc23)OCO4)cc(OC)c1OC | > 100 | > 100 | > 100 | > 100 | > 100 | 51.7 | > 100 | > 100 µM | 44.1 µM | 4.73 | 7.08 | > 100 µM | 2.88 | > 100 | – | – | 8.68 | 2.27 | 16.4 µM | 3.31 µM
